Reference: US9623063B2, “Extracts from Ajuga reptans cell lines, their preparation and use” (I.R.B. ISTITUTO DI RICERCHE BIOTECNOLOGICHE S.r.l., priority 2005, dated 2017)
Values after ≈ are worked out from the molar mass of the structure shown. Like-named read-outs stand apart in the source and are kept apart here.

Legend:
tyrosinase = assay: Tyrosinase inhibition, oxidation of L-tyrosine to L-DOPA; type: biochemical; settings: 250 μg/ml
Text: The enzyme tyrosinase catalyses the reactions leading to melanin biosynthesis from tyrosine. […] Substances inhibiting tyrosinase activity produce a clearing/bleaching effect on the skin, since they block melanin synthesis. The method used to determine the inhibition of tyrosinase activity in the oxidation reaction of L-tyrosine to L-DOPA is that described in Kim et al. […] Biol. Pharm. […] The method applied for determination of the inhibition of tyrosinase activity in the conversion of L-DOPA to DOPAquinone is that described in Masamoto et al. (Mushroom tyrosinase inhibitory activity of esculetin isolated from seeds of Euphorbia lathyris L. Biosci. Biotechnol. Biochem., 67(3), 631-634, 2003).

white blood cells = assay: Luminol dependent chemiluminescence of PMA-stimulated white blood cells; type: cell-based; settings: Homo sapiens, 0.5 h, read-out: White blood cell chemiluminescence (IC50 mg/ml)
Procedure: Anti-inflammatory activity has been assessed by measuring luminol dependent chemiluminescence generated by free radicals released from whole blood and from white blood cells. The assay has been performed using the following protocol: 10 μl of fresh human blood is mixed with 0.980 ml of Hanks saline solution containing 5×10^−5 M luminol and the test sample (at various concentrations). The chemiluminescent response is recorded continuously for 30 minutes at a temperature of 37° C. The results are expressed as IC50 (mg/ml), i.e. as the minimum sample concentration inhibiting chemiluminescence by 50% with respect to the control. To isolate white blood cells (WBC) from whole blood one proceeds in the following manner: 1 ml of fresh blood is layered onto a Hipaque gradient (p=1.119) and centrifuged at 250×g for 60 minutes at room temperature. Following centrifugation, the pellet containing the white blood cells is washed twice, using a large volume of cold Hanks saline solution. Finally, the washed WBCs are resuspended in 0.1 ml di HBSS containing foetal calf serum. 10^6 WBC are added to a chemiluminometer cuvette. 10 μl of PMA (final concentration equal to 10 nM) are added to induce the formation of free radicals. The chemiluminescent response is recorded continuously for 30 minutes at a temperature of 37° C. […]

[1] = target: T1, 5 alpha reductase, type II (Homo sapiens, UniProt P31213); assay: Type II 5 alpha reductase inhibition ([14C] testosterone conversion); type: biochemical
T1 construct: made in house; host or cells: genetically modified yeast
T1 sequence (P31213 1-254): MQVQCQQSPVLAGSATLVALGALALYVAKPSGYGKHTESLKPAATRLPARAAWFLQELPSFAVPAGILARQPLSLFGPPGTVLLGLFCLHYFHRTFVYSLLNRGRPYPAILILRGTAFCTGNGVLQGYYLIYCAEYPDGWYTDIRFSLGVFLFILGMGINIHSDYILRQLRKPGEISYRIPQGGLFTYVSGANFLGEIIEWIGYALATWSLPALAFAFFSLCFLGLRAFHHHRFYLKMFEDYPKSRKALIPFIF
Text: Determination of the 5 alpha reductase inhibitory activities by Ajuga reptans extracts in comparison to Serenoa repens extracts. Said determination has been performed using enzymes (5 alpha reductase, type I and type II) produced by genetically modified yeast. Enzyme activities have been determined in the presence of Ajuga reptans extracts, teupolioside, isoteupolioside and Serenoa repens extracts.
Determination of the type II 5 alpha reductase activity has been performed in an analogous manner to that just described, with the exception of a different pH value for the 0.1 M Tris-citrate buffer (pH 5.0).
In both assays, the steroids have been extracted using 5 ml of methylene chloride. The extracts have then been dried under a stream of nitrogen and the dried residues obtained have been dissolved in 20 μl of a chloroform-methanol mixture (2:1 v/v). An aliquot of said mixture has been deposited on the surface of a silica gel TLC plate. […] For quantification of the results, the spots have been scraped from the TLC plate and extracted with 2 ml of ethyl acetate. The extracts obtained have been analysed, using scintillation fluid, with the aid of a Wallach β-counter. The enzyme activity has been calculated from the percentage conversion (C %) of the substrate into final product: C%=[counted product/(counted substrate+product)]×100.

[2] = Metal chelation, spectrophotometric (Fe3+); type: physicochemical
Text: The chelating activities of Ajuga reptans extracts in relation to Fe^2+, Fe^3+, Cu^2+ and Ni^2+ metal ions has been determined by means of spectrophotometric measurements using a Shimadzu 1770 UV spectrophotometer. The activities of chelating agents depends on the association constant (equilibrium) of their reactions with the metals according to the following reaction:
[formula] wherein Keq is the equilibrium constant equal to the ratio of concentrations at equilibrium of a complex and a product of equilibrium concentrations of metal ions and a chelator:
The method used for determining chelating activities is well documented in the literature (Korkina L G, Afarras'er I B. Antioxidant and chelating properties of flavonoids. Adv. Pharmacol., 1997, 38:151-63). The results are expressed as Keq (M^−1) calculated for a pure phenylpropanoid. This way the chelating activity against ferrous (Fe II), ferric (Fe III), copper (Cu II) and nickel ions has been calculated.

[3] = Fe2+-induced lipid peroxidation (thiobarbituric acid); type: biochemical
Text: Ajuga reptans Extracts 1 and 2, prepared as described in examples 1 and 2, and isoteupolioside have been used to assess in vitro antioxidant action with specific oxygen radical generating systems such as the superoxide anion (O2^−), the hydroxyl radical (HO^−), the peroxynitrite radical (ONOO^−) and the inhibition of lipid peroxidation. The superoxide anion has been measured by a chemiluminescent assay based on the hypoxanthine (HPX)/xanthine oxidase (XOD) reaction using the Lumimax Superoxide Anion Detection Kit (Stratagene, La Jolla, Calif., USA) and following the manufacturer's instructions. Hydroxyl radical scavenger activity has been measured by means of the Fenton reaction for the production of hydroxyl radicals and chemiluminescent dosage (using a Victor^3 chemiluminometer, Wallac, Finland) with luminol. Peroxynitrite ions have been determined by means of dosage with a spontaneous generator of peroxynitrites (3-morpholinosidnonimine hydrochloride; SIN-1) and a stable reagent for the nitroxyl ions (2-(4-carboxyphenyl)-4,4,5,5-tetramethylimidazoline-1-oxyl-3-oxide potassium salt PTIO spin trap) then dosed by means of electron spin resonance (ESR) using a Nippon Denshi JES-FR30. […]

Structure (SMILES)	Test L-tyrosine-DOPA inhibitory activity (%) (tyrosinase)	IC50 (white blood cells) [mg/mL]	IC50 [1] [µM]	Fe^3+ (Keq, M^−1) [2] [M⁻¹]	Lipid peroxidation (IC50) [3] [mg/L]	IC50 (white blood cells; 10^6 WBC, PMA 10 nM, 30 min, 37° C.) [mg/mL]	IC50 ([1]; second column of Table 9, pH 5.0, 5 μM testosterone, read-out: Type II 5 alpha reductase inhibition (IC50) (converted)) [µM]	Fe^3+ (Keq, M^−1) ([2]; calculated for a pure phenylpropanoid) [M⁻¹]	Lipid peroxidation (IC50) ([3]; means of 6 independent assays) [mg/L]
CC1OC(OC2C(O)C(COC(=O)C=Cc3ccc(O)c(O)c3)OC(OCCc3ccc(O)c(O)c3)C2O)C(OC2OC(CO)C(O)C(O)C2O)C(O)C1O (stereo not shown) [Isoteupolioside, isoteupolioside]	30.9	0.4 (≈ 508 µM)	33	420000 ± 110000	9.14				
C[C@@H]1O[C@@H](O[C@@H]2[C@@H](O)[C@H](OCCc3ccc(O)c(O)c3)O[C@H](CO)[C@H]2OC(=O)/C=C/c2ccc(O)c(O)c2)[C@H](O[C@@H]2O[C@H](CO)[C@H](O)[C@H](O)[C@H]2O)[C@H](O)[C@H]1O [Teupolioside, teupolioside]	29.6					0.5 (≈ 636 µM)	30.5	430000 ± 90000	9.4
